From US11660309B2, “Prevention and treatment of inflammatory conditions” (GRI BIO, INC., priority 2011, dated 2023)
Entries after “also recorded” stand apart in the source; their conditions may differ.

Tests used:
type I NKT cells [1] = experiment: In vitro αGalCer-stimulated proliferation of splenic type I NKT cells ([3H]-thymidine incorporation); type: cell-based, naïve B6 mice; conditions: for type I NKT cell proliferation at optimal concentration of RAR agonist: Example 15, αGalCer 10 ng/ml, comparison among ATRA, Tretinoin, AM580, AC55649, CD1530
Description: Retinoic acid receptors (RARs) comprise three major subtypes: RARα, RAR β, and RARγ. The RAR agonist ATRA is not selective for a specific subtype. The contribution of RAR subtypes to inhibition of type I NKT cell activity was tested with subtype-selective RAR agonists as follows. Splenic cells were isolated from naïve B6 (WT) mice and cultured in vitro in the presence of [^3H]-thymidine, an optimal concentration of αGalCer, and graded concentrations of the pan-RAR agonist ATRA, the RARα agonist AM580, the RAR β 2 agonist AC55649 or the RARγ agonist CD1530. Proliferation of the type I NKT cells in response to αGalCer stimulation was measured by [^3H]-thymidine incorporation. […]
In vitro proliferation and cytokine release assays were performed on freshly isolated splenocytes and type I NKT cell hybridomas (1.2 Hyb). The cells were cultured in the presence of [3H]-thymidine and an optimal concentration of αGalCer (10 ng/ml) with titrating concentrations of ATRA, Tretinoin, the RARα agonist AM580, the RAR β agonist AC55649 or the RARγ agonist CD1530. Proliferation of the type I NKT cells in response to αGalCer stimulation was quantified by [^3H]-thymidine incorporation. IL-2 levels were measured using IL-2 sandwich ELISA. Optimal concentrations of the RAR agonists was determined. […]

[2] = system: alcohol-induced liver injury; experiment: Alcohol-induced liver injury, chronic plus binge ethanol feeding: serum ALT and liver histology; type: in vivo, B6 (WT) male mice
From the text: Following acclimatization with nutritionally adequate Lieber-DeCarli liquid diet for a week, 6-8 week old male C57BL/6J mice (B6) and Jα18−/− mice, which lack type I NKT cells but not type 2 NKT cells, were given free access to a liquid diet containing 5% ethanol or an isocaloric dextrin maltose-containing diet (Bio-Serv, NJ). Precautions were taken to prepare the diet fresh every day using autoclaved water in sterilized feeders, changing feed daily.
B6 and Jα18−/− mice receiving the ethanol-containing diet were separated into two groups, the chronic ethanol feeding group and the chronic plus binge ethanol feeding group. Mice in the chronic ethanol feeding group were fed liquid diet containing 5% ethanol for up to 4-5 weeks. Mice in the chronic plus binge ethanol feeding group were fed liquid diet containing 5% ethanol for 10 days followed by (on day 11) a single high dose of gavaged ethanol (5 g/kg body weight). Mice in the control group were gavaged with isocaloric dextrin maltose. Following gavage, mice were kept on a temperature controlled warm pad and monitored. Though initially slow moving, most mice receiving the high dose of gavaged ethanol regained normal behavior within hours. Mice were euthanized 8-9 hr after gavage. […]
Serum ALT levels were determined for each group of mice. […]

type I NKT cells (Hy1.2) = experiment: IL-2 secretion by type I NKT cell hybridoma (Hy1.2) with APCs and αGalCer (IL-2 sandwich ELISA); type: cell-based
Description: The affect of ATRA on IL-2 cytokine secretion by a type I NKT cells in response to an in vitro challenge with αGalCer was tested by co-culturing NKT cells (Hy1.2) and irradiated antigen-presenting cells (APCs) in vitro with an optimal concentration of αGalCer in the presence or absence of ATRA (0.15 μg/ml, 1.2 μg/ml, or 18.8 μg/ml) for a period of 16 hours. Supernatants were collected and secreted IL-2 levels were measured using IL-2 sandwich ELISA.
In vitro proliferation and cytokine release assays were performed on freshly isolated splenocytes and type I NKT cell hybridomas (1.2 Hyb). The cells were cultured in the presence of [3H]-thymidine and an optimal concentration of αGalCer (10 ng/ml) with titrating concentrations of ATRA, Tretinoin, the RARα agonist AM580, the RAR β agonist AC55649 or the RARγ agonist CD1530. Proliferation of the type I NKT cells in response to αGalCer stimulation was quantified by [^3H]-thymidine incorporation. IL-2 levels were measured using IL-2 sandwich ELISA. Optimal concentrations of the RAR agonists was determined.
In vitro proliferation and cytokine release assays were performed on freshly isolated splenocytes and type I NKT cell hybridomas (1.2 Hyb). The cells were cultured in the presence of [^3H]-thymidine and an optimal concentration of αGalCer (10 ng/ml) with increasing concentrations of ATRA or Tazarotene. Proliferation of the type I NKT cells in response to αGalCer stimulation was quantified by [H]-thymidine incorporation. IL-2 levels were measured using IL-2 sandwich ELISA.

type I NKT cells [3] = experiment: Ex vivo proliferation and cytokine response to αGalCer of type I NKT cells from RAR agonist injected mice; type: in vivo; conditions: for proliferative response of splenic type I NKT cells to αGalCer stimulation: Example 17, cells from mice injected i.p. 15 mg/kg daily for 5 days, vs vehicle (DMSO)
Description: Functional changes in type I NKT cells following ATRA administration were further tested. In two independent experiments, groups of Black 6 (WT) mice were injected intraperitoneally with 0.3 mg/animal (˜15 mg/Kg body weight) ATRA or vehicle (DMSO) daily for a period of 5 days. Type I NKT cells were purified and cultured in vitro with increasing concentrations of αGalCer. Cell proliferation was measured and supernatants were collected. The cytokine response of the isolated type I NKT after in vitro challenge with αGalCer was determined by sandwich ELISA for IFN-γ, IL-4, IL-6, IL-10, IL-12, and IL-13. […] No secretion of IFN-γ, IL-6, IL-10, IL-12, or IL-13 in response to αGalCer stimulation was detected from type I NKT cells isolated from ATRA injected mice.
(§1) Functional changes in type I NKT cells following in vivo administration of Tazarotene or ATRA was tested. Groups of mice were injected intraperitoneally with […] (15 mg/kg), 300 μg Tazarotene (15 mg/kg) or vehicle (DMSO) daily for a period of 5 days. Splenic Type I NKT cells were purified and cultured in vitro with increasing concentrations of αGalCer. Cell proliferation was measured by quantification of [^3H]-thymidine incorporation and the results are shown at FIG. 17.

[4] = system: MBPAc1-9-reactive CD4+ T cells; experiment: Proliferation of MBPAc1-9-reactive CD4+ T cells ([3H]-thymidine incorporation); type: cell-based, naïve B10.PL VB8.2 TCR transgenic mice; conditions: ATRA 0.15, 1.2, 18.8 μg/ml
Description: The effect of ATRA on class II MHC-restricted conventional CD4 T Cells was tested by isolating myelin basic protein MBPAc1-9-reactive CD4+ T cells from naïve B10.PL VB8.2 TCR transgenic mice and culturing the cells in vitro with [^3H]-thymidine and an optimal concentration of MBPAc1-9 in the presence or absence of graded concentrations of ATRA (0.15, 1.2, 18.8 μg/ml). Proliferation of the MBPAc1-9-reactive CD4+ T cells was measured by [^3H]-thymidine incorporation.

[5] = system: Type I NKT hybridoma cells (Hy1.2); experiment: IL-2 secretion by Hy1.2 cells pretreated with ATRA in the absence of antigen-presenting cells; type: cell-based; conditions: Hy1.2 pretreated 24 hr with 5, 10 or 20 μg/ml ATRA, washed, then APCs + graded αGalCer, 16 hour
Description: The effect of ATRA treatment on type I NKT cells in the absence of antigen-presenting cells was also measured. Type I NKT hybridoma cells (Hy1.2) were cultured in vitro either without ATRA or with 5 μg/ml, 10 μg/ml, or 20 μg/ml ATRA for 24 hr. The cells were then washed three times and co-cultured with irradiated splenocytes (APCs) in the presence of graded concentrations of the lipid antigen, αGalCer. Supernatants were collected 16 hour later and IL-2 levels were measured using IL-2 sandwich ELISA.

liver type I NKT cells = experiment: Flow cytometry count of liver type I NKT cells (αGalCer/CD1d-tetramer/TCRβ) after in vivo administration; conditions: mice injected i.p. 15 mg/kg daily for 5 days
Description: as §1
Mononuclear cells were isolated from livers of mice injected with either ATRA, Tazarotene or vehicle (DMSO) and stained with αGalCer/CD1d-tetramer and a pan anti-TCRβ antibodies. Flowcytometry was performed and the population of αGalCer/CD1d-tetramer/TCRβ expressing cells (type I NKT cells) was quantified as shown in FIG. 18.

[6] = Example 16, splenocytes, αGalCer 10 ng/ml, increasing concentrations of ATRA or Tazarotene
[7] = Example 16, 1.2 Hyb, αGalCer 10 ng/ml, increasing concentrations of ATRA or Tazarotene
[8] = cells from mice injected i.p. with 0.3 mg/animal ATRA daily for 5 days

CCCCCCCCc1ccc(-c2ccc(C(=O)O)cc2)cc1 [AC55649]
type I NKT cell proliferation in response to αGalCer (type I NKT cells [1]; Example 12, 10^1 μg/ml): low or minimal proliferation
type I NKT cell proliferation in response to αGalCer (type I NKT cells [1]; Example 12, graded concentrations up to (below) 10^1 μg/ml): Reduced cell proliferation

CC1(C)CCC(C)(C)c2cc(C(=O)Nc3ccc(C(=O)O)cc3)ccc21 [AM580]
type I NKT cell proliferation in response to αGalCer (type I NKT cells [1]; Example 12, 10^1 μg/ml): proliferation was maintained

CC1=C(/C=C/C(C)=C/C=C/C(C)=C/C(=O)O)C(C)(C)CCC1 [ATRA, all trans retinoic acid]
protection from liver damage following excess alcohol consumption (summary of FIGS. 6 and 7) [2]: significantly inhibits liver damage
liver histology for hepatic steatohepatitis (fatty liver disease) ([2]; B6 mice, sulfatide or ATRA injected): little sign of fatty liver disease; also recorded: appears relatively normal
αGalCer-induced type I NKT cell proliferation compared with αGalCer alone (type I NKT cells [1]; 0.15 μg/ml ATRA + αGalCer): similar
αGalCer-induced type I NKT cell proliferation compared with αGalCer alone (type I NKT cells [1]; 1.2 μg/ml ATRA + αGalCer): reduced
αGalCer-induced type I NKT cell proliferation compared with αGalCer alone (type I NKT cells [1]; 18.8 μg/ml ATRA + αGalCer): greatest inhibition
type I NKT cell proliferation (type I NKT cells [1]; ATRA alone, no αGalCer): No or minimal proliferation
type I NKT cell proliferation in response to αGalCer (type I NKT cells [1]; Example 12, 10^1 μg/ml): low or minimal proliferation
type I NKT cell proliferation in response to αGalCer (type I NKT cells [1]; Example 14, 10^1 μg/ml): no or minimal proliferation
type I NKT cell proliferation at optimal concentration of RAR agonist (type I NKT cells [1]): lowest levels of proliferation
type I NKT cell proliferation (type I NKT cells [1]; [6]): inhibit
IL-2 secretion (type I NKT cells (Hy1.2); 0.15 μg/ml ATRA, αGalCer, irradiated APCs, 16 hours): not significantly affected
IL-2 secretion (type I NKT cells (Hy1.2); 1.2 μg/ml ATRA, αGalCer, irradiated APCs, 16 hours): significant reductions
IL-2 secretion (type I NKT cells (Hy1.2); 18.8 μg/ml ATRA, αGalCer, irradiated APCs, 16 hours): greatest reduction
IL-2 secretion (type I NKT cells (Hy1.2); [7]): inhibit
proliferative response of splenic type I NKT cells to αGalCer stimulation (type I NKT cells [3]): inhibits type I NKT cell activity
proliferation of type I NKT cells in response to αGalCer stimulation (type I NKT cells [3]; cells from WT mice injected i.p. with 0.3 mg/animal ATRA daily for 5 days): did not proliferate
IFN-γ secretion in response to αGalCer stimulation (type I NKT cells [3]; [8]): No secretion
IL-4 secretion in response to αGalCer stimulation (type I NKT cells [3]; [8]): Reduced levels
IL-6 secretion in response to αGalCer stimulation (type I NKT cells [3]; [8]): No secretion
IL-10 secretion in response to αGalCer stimulation (type I NKT cells [3]; [8]): No secretion
IL-12 secretion in response to αGalCer stimulation (type I NKT cells [3]; [8]): No secretion
IL-13 secretion in response to αGalCer stimulation (type I NKT cells [3]; [8]): No secretion
MBPAc1-9-stimulated proliferation of CD4+ T cells [4]: No inhibition; also recorded: does not directly inhibit
IL-2 secretion [5]: inhibits IL-2 secretion
numbers of type I NKT cells in the livers vs control (liver type I NKT cells): no significant difference

O=C(O)c1ccc(-c2ccc3cc(O)c(C45CC6CC(CC(C6)C4)C5)cc3c2)cc1 [CD1530]
type I NKT cell proliferation in response to αGalCer (type I NKT cells [1]; Example 12, 10^1 μg/ml): low or minimal proliferation
type I NKT cell proliferation at optimal concentration of RAR agonist (type I NKT cells [1]): lowest levels of proliferation
IL-2 secretion at optimal concentration of RAR agonist (type I NKT cells (Hy1.2); Example 15, 1.2 Hyb, αGalCer 10 ng/ml, comparison among RAR agonists): lowest levels of IL-2 secretion

Tazarotene
type I NKT cell proliferation (type I NKT cells [1]; [6]): achieves its inhibitory effects at lower concentrations; also recorded: better inhibition of type I NKT cells than ATRA
IL-2 secretion (type I NKT cells (Hy1.2); [7]): achieves its inhibitory effects at lower concentrations
proliferative response of splenic type I NKT cells to αGalCer stimulation (type I NKT cells [3]): lowest levels of proliferation
numbers of type I NKT cells in the livers vs control (liver type I NKT cells): no significant difference
